Measurements reported in patent publication US9512144B2, “Imidazothiazole sufonamides as nematicides” (BAYER CROPSCIENCE AKTIENGESELLSCHAFT, priority 2013, dated 2016).

Legend:
Type in all cases: in vivo
Meloidogyne incognita [1] = test: Meloidogyne incognita test (MELGIN): sand, salad seeds, gall formation after 14 days; conditions: application rate 20 ppm, salad seedlings in sand
Experimental: Solvent: 125.0 parts by weight of acetone To produce a suitable preparation of active compound, 1 part by weight of active compound is mixed with the stated amount of solvent, and the concentrate is diluted with water to the desired concentration. Vessels are filled with sand, a solution of the active ingredient, a suspension containing eggs and larvae of the southern root-knot nematode (Meloidogyne incognita) and salad seeds. The salad seeds germinate and the seedlings grow. Galls develop in the roots. After 14 days the nematicidal activity is determined on the basis of the percentage of gall formation. 100% means that no galls were found; 0% means that the number of galls found on the roots of the treated plants was equal to that in untreated control plants.

Meloidogyne incognita [2] = test: Meloidogyne incognita test: compound solution poured into pots with soil (loamy sand), salad seeds, gall formation after 21 days; conditions: salad in soil
Experimental: Solvent: 7 parts by weight of dimethylformamide Emulsifier: 2.5 parts by weight of alkylarylpolyglycolether To produce a suitable preparation of active compound, 1 part by weight of active compound is mixed with the stated amount of solvent and emulsifier and is diluted with water to the desired concentration. In the calculation of the concentration the soil volume has to be included. […] Further test concentrations are prepared by dilution with water. The compound solution is poured into pots filled with soil (loamy sand). A suspension containing eggs and larvae of the southern root-knot nematode (Meloidogyne incognita) is added, salad seeds are spread on the soil surface and covered with quartz sand. The salad seeds germinate and the seedlings grow. Galls develop on the roots. After 21 days the nematicidal activity is determined on the basis of the percentage of gall formation. 100% means no galls were found; 0% means the number of galls found on the roots of the treated plants was equal to that in untreated control plants.

Meloidogyne incognita [3] = test: Meloidogyne incognita spray test (MELGIN): leaves of salad and tomato plants sprayed, gall formation 24 days after spraying
Experimental: Solvent: 7 parts by weight of dimethylformamide Emulsifier: alkylaryl polyglycol ether To produce a suitable preparation of active compound, 1 part by weight of active compound is mixed with the stated amount of solvent and is diluted with water, containing an emulsifier concentration of 1000 ppm, to the desired concentration. Further test concentrations are prepared by dilution with emulsifier containing water. Ammonium sulfate and rape oil methyl ester (RME) in a dosage of 1000 ppm are added to the desired concentration. Salad and tomato plants are treated by being sprayed on the leaves with the preparation of the active compound of the desired concentration, the soil surface is covered by a protection film. 3 days after spraying, a suspension containing eggs and larvae of the southern root-knot nematode (Meloidogyne incognita) is added on the soil surface. Galls develop on the roots. 24 days after spraying, the nematicidal activity is determined on the basis of the percentage of gall formation. 100% means no galls were found; 0% means the number of galls found on the roots of the treated plants was equal to that in untreated control plants. […] Test plant: Tomato, Lycopersicon esculentum Test plant: Salad, Lactuca sativa

[4] = test plant Salad, Lactuca sativa, leaf spray 100 ppm
[5] = test plant Salad, Lactuca sativa, leaf spray 1000 ppm
[6] = test plant Salad, Lactuca sativa, leaf spray 2500 ppm
[7] = test plant Tomato, Lycopersicon esculentum, leaf spray 100 ppm
[8] = test plant Tomato, Lycopersicon esculentum, leaf spray 1000 ppm
[9] = test plant Tomato, Lycopersicon esculentum, leaf spray 2500 ppm

O=C(NS(=O)(=O)c1cc(C(F)(F)F)ccc1Cl)c1cn2cc(C(F)(F)F)sc2n1 [Example I-1-4]
nematicidal activity on the basis of the percentage of gall formation (100% = no galls) (Meloidogyne incognita [1]): 100% | nematicidal activity on the basis of the percentage of gall formation (100% = no galls) (Meloidogyne incognita [2]; application rate 2 ppm): 97% | nematicidal activity on the basis of the percentage of gall formation (100% = no galls) (Meloidogyne incognita [3]; [4]): 0% | nematicidal activity on the basis of the percentage of gall formation (100% = no galls) (Meloidogyne incognita [3]; [5]): 20% | nematicidal activity on the basis of the percentage of gall formation (100% = no galls) (Meloidogyne incognita [3]; [6]): 75% | nematicidal activity on the basis of the percentage of gall formation (100% = no galls) (Meloidogyne incognita [3]; [7]): 25% | nematicidal activity on the basis of the percentage of gall formation (100% = no galls) (Meloidogyne incognita [3]; [8]): 35% | nematicidal activity on the basis of the percentage of gall formation (100% = no galls) (Meloidogyne incognita [3]; [9]): 98%

Cc1c(C(F)(F)F)sc2nc(C(=O)NS(=O)(=O)c3c(Cl)cccc3Cl)cn12 [Example I-1-158]
nematicidal activity on the basis of the percentage of gall formation (100% = no galls) (Meloidogyne incognita [1]): 90% | nematicidal activity on the basis of the percentage of gall formation (100% = no galls) (Meloidogyne incognita [2]; application rate 2 ppm): 98% | nematicidal activity on the basis of the percentage of gall formation (100% = no galls) (Meloidogyne incognita [3]; [4]): 15% | nematicidal activity on the basis of the percentage of gall formation (100% = no galls) (Meloidogyne incognita [3]; [5]): 75% | nematicidal activity on the basis of the percentage of gall formation (100% = no galls) (Meloidogyne incognita [3]; [6]): 80% | nematicidal activity on the basis of the percentage of gall formation (100% = no galls) (Meloidogyne incognita [3]; [7]): 0% | nematicidal activity on the basis of the percentage of gall formation (100% = no galls) (Meloidogyne incognita [3]; [8]): 0% | nematicidal activity on the basis of the percentage of gall formation (100% = no galls) (Meloidogyne incognita [3]; [9]): 50%

COc1ccc(Cl)c(S(=O)(=O)NC(=O)c2cn3c(C)c(C(F)(F)F)sc3n2)c1 [Example I-1-159]
nematicidal activity on the basis of the percentage of gall formation (100% = no galls) (Meloidogyne incognita [1]): 100% | nematicidal activity on the basis of the percentage of gall formation (100% = no galls) (Meloidogyne incognita [2]; application rate 2 ppm): 95% | nematicidal activity on the basis of the percentage of gall formation (100% = no galls) (Meloidogyne incognita [3]; [4]): 25% | nematicidal activity on the basis of the percentage of gall formation (100% = no galls) (Meloidogyne incognita [3]; [5]): 60% | nematicidal activity on the basis of the percentage of gall formation (100% = no galls) (Meloidogyne incognita [3]; [6]): 95% | nematicidal activity on the basis of the percentage of gall formation (100% = no galls) (Meloidogyne incognita [3]; [7]): 0% | nematicidal activity on the basis of the percentage of gall formation (100% = no galls) (Meloidogyne incognita [3]; [8]): 75% | nematicidal activity on the basis of the percentage of gall formation (100% = no galls) (Meloidogyne incognita [3]; [9]): 95%

Cc1ccc(C)c(S(=O)(=O)NC(=O)c2cn3cc(C(F)(F)F)sc3n2)c1 [Example I-1-9]
nematicidal activity on the basis of the percentage of gall formation (100% = no galls) (Meloidogyne incognita [1]): 100% | nematicidal activity on the basis of the percentage of gall formation (100% = no galls) (Meloidogyne incognita [2]; application rate 8 ppm): 100%

O=C(NS(=O)(=O)c1c(F)cccc1F)c1cn2cc(C(F)(F)C(F)(F)F)sc2n1 [Example I-1-222]
nematicidal activity on the basis of the percentage of gall formation (100% = no galls) (Meloidogyne incognita [1]): 100% | nematicidal activity on the basis of the percentage of gall formation (100% = no galls) (Meloidogyne incognita [2]; application rate 8 ppm): 90%

O=C(NS(=O)(=O)c1cc(Cl)ccc1Br)c1cn2cc(C(F)(F)F)sc2n1 [Example I-1-205]
nematicidal activity on the basis of the percentage of gall formation (100% = no galls) (Meloidogyne incognita [1]): 100% | nematicidal activity on the basis of the percentage of gall formation (100% = no galls) (Meloidogyne incognita [2]; application rate 4 ppm): 95%

Cc1c(C(F)(F)C(F)(F)F)sc2nc(C(=O)NS(=O)(=O)c3c(F)cccc3F)cn12 [Example I-1-252]
nematicidal activity on the basis of the percentage of gall formation (100% = no galls) (Meloidogyne incognita [1]): 90% | nematicidal activity on the basis of the percentage of gall formation (100% = no galls) (Meloidogyne incognita [2]; application rate 8 ppm): 95%

CCOc1ccc(Cl)c(S(=O)(=O)NC(=O)c2cn3cc(C(F)(F)F)sc3n2)c1 [Example I-1-286]
nematicidal activity on the basis of the percentage of gall formation (100% = no galls) (Meloidogyne incognita [1]): 100% | nematicidal activity on the basis of the percentage of gall formation (100% = no galls) (Meloidogyne incognita [2]; application rate 1 ppm): 85%

Cc1ccc(C)c(S(=O)(=O)NC(=O)c2cn3cc(C(F)(F)C(F)(F)F)sc3n2)c1 [Example I-1-225]
nematicidal activity on the basis of the percentage of gall formation (100% = no galls) (Meloidogyne incognita [1]): 90% | nematicidal activity on the basis of the percentage of gall formation (100% = no galls) (Meloidogyne incognita [2]; application rate 8 ppm): 80%

O=C(NS(=O)(=O)c1ccccc1Cl)c1cn2cc(C(F)(F)C(F)(F)F)sc2n1 [Example I-1-142]
nematicidal activity on the basis of the percentage of gall formation (100% = no galls) (Meloidogyne incognita [1]): 100% | nematicidal activity on the basis of the percentage of gall formation (100% = no galls) (Meloidogyne incognita [2]; application rate 4 ppm): 80%

COc1ccc(Cl)c(S(=O)(=O)NC(=O)c2cn3cc(C(F)(F)C(F)(F)F)sc3n2)c1 [Example I-1-147]
nematicidal activity on the basis of the percentage of gall formation (100% = no galls) (Meloidogyne incognita [1]): 100% | nematicidal activity on the basis of the percentage of gall formation (100% = no galls) (Meloidogyne incognita [2]; application rate 8 ppm): 85%
